Results taken from PMC5819996 (Cell chemical biology, 2017).

Experiments:
MBP-UbiB^CΔ47 = MBP-UbiB^CΔ47 (Escherichia coli, UniProt P0A6A0); test: malachite green ATPase assay; format: biochemical; conditions: 100 μM ATP, 4 mM MgCl2, 1 mM Triton X-100 and 2-alkylphenols, pH 7.5, 30 °C
COQ8A^NΔ250 = COQ8A^NΔ250 (Homo sapiens, UniProt Q8NI60); test: malachite green ATPase assay; format: biochemical; conditions: 100 μM ATP, 4 mM MgCl2, 1 mM Triton X-100 and 2-alkylphenols, pH 7.5, 30 °C
Chain of COQ8A^NΔ250 (Q8NI60 251-647, stated change not applied): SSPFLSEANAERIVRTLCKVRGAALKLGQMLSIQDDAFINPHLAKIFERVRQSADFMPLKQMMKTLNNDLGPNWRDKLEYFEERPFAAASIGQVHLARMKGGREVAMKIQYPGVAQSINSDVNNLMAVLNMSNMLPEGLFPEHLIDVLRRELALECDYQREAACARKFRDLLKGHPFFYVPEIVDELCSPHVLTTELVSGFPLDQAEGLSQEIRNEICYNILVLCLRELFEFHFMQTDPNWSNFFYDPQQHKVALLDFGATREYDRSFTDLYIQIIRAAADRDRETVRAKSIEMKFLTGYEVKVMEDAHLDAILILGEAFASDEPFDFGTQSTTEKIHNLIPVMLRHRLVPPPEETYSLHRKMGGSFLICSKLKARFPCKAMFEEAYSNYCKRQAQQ

Chain of MBP-UbiB^CΔ47 (P0A6A0 1-499, stated change not applied): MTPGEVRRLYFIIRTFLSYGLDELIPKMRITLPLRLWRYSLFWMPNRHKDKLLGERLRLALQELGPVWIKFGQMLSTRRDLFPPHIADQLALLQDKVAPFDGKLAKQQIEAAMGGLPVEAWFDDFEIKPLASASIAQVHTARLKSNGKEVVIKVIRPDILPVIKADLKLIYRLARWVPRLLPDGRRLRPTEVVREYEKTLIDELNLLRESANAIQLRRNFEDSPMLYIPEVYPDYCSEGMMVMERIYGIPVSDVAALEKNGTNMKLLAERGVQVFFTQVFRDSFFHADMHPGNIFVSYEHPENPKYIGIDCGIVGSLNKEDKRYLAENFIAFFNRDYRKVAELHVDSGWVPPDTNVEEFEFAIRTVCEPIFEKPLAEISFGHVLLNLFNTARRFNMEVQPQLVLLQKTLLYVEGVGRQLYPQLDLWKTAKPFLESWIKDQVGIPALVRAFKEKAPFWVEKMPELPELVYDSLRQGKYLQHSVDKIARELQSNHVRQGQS

With `Nc1ncnc2c1ncn2[C@@H]1O[C@H](COP(=O)(O)OP(=O)(O)OP(=O)(O)O)[C@@H](O)[C@H]1O` [ATP] the “malachite green ATPase assay” value (MBP-UbiB^CΔ47) was 2-alkylphenols with Triton X-100 increase the ATPase activity of UbiB family members and the “malachite green ATPase assay” value (COQ8A^NΔ250) was 2-alkylphenols with Triton X-100 increase the ATPase activity of UbiB family members.
